Structures can show the parent of a compound that is named as a salt. Where two headings read alike, the source gives them in different places.
How the values were obtained:
[1] = target: His-GST-TVMV-hRIPK1(1-324) (Homo sapiens (Human), UniProt Q13546); assay: RIPK1 HTRF Binding Assay; conditions: HTRF binding, 1 h at rt; read-out: RIPK1 (IC50)
Outline: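 HTRF probe-displacement binding: 1 nM His-GST-TVMV-hRIPK1(1-324) (baculovirus construct), 90.6 nM probe, 0.2 nM anti-GST-Tb in 20 mM HEPES, 10 mM MgCl2, 0.015% Brij-35, 4 mM DTT, 0.05 mg/mL BSA. Incubated 1 h at rt; FRET 520/495 nm ratio, inhibition relative to DMSO-only wells.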

[2] = system: MLKL phosphorylation in HT29-L23 human colorectal adenocarcinoma cells; assay: MLKL Phosphorylation High-Content Assay; format: cell-based; conditions: necroptosis induced with TNFα, SMAC mimetic and Z-VAD, 6 h, read-out: pMLKL (IC50)
Outline: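 HT29-L23 cells pretreated 30 min at 37 °C with compound (6.25 to 0.106 μM final), then necroptosis induced with TNFα 35 ng/mL, SMAC mimetic 700 nM and Z-VAD 140 nM for 6 h. Fixed cells immunostained for MLKL pS358 and imaged; IC50 and Ymax from 4-parameter logistic fit.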

His-GST-TVMV-hRIPK1(1-324), sequence (Q13546 1-324): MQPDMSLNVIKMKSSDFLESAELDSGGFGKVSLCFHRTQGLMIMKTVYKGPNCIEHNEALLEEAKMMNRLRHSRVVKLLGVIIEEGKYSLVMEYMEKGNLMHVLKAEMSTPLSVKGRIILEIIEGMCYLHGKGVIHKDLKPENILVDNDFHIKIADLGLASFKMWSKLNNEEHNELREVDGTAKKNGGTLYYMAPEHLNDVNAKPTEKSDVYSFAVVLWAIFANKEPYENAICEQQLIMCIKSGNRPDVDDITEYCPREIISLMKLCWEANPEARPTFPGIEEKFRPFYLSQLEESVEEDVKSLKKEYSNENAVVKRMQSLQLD

| Compound | IC50 [1] [µM] | IC50 [2] [µM] | IC50 ([2]; Homo sapiens) [µM] |
| --- | --- | --- | --- |
| COc1nc(C)c(-c2ccc3nc(NC(C)=O)cn3n2)cc1C(=O)NCc1ncccc1OCC1CCCC1 [Example 312, N-{[3-(cyclopentylmethoxy)pyridin-2-yl]methyl}-5-{2-acetamidoimidazo[1,2-b]pyridazin-6-yl}-2-methoxy-6-methylpyridine-3-carboxamide, 2 TFA] | 0.007 | 0.038 | – |
| COc1nc(C)c(-c2ccc3nc(NC(C)=O)cn3n2)cc1C(=O)NCc1cccnc1OCC1CCCC1 [Example 313, N-{[2-(cyclopentylmethoxy)pyridin-3-yl]methyl}-5-{2-acetamidoimidazo[1,2-b]pyridazin-6-yl}-2-methoxy-6-methylpyridine-3-carboxamide] | 0.009 | – | 0.022 |
| COc1nc(C)c(-c2ccc3nc(NC(C)=O)cn3n2)cc1C(=O)NCc1cccnc1OCC1CCC1 [Example 314, N-{[2-(cyclobutylmethoxy)pyridin-3-yl]methyl}-5-{2-acetamidoimidazo[1,2-b]pyridazin-6-yl}-2-methoxy-6-methylpyridine-3-carboxamide] | 0.005 | – | 0.003 |
| COc1nc(C)c(-c2ccc3nc(NC(C)=O)cn3n2)cc1C(=O)NCc1cc(F)ccc1OCC1CCCC1 [Example 315, N-{[2-(cyclopentylmethoxy)-5-fluorophenyl]methyl}-5-{2-acetamidoimidazo[1,2-b]pyridazin-6-yl}-2-methoxy-6-methylpyridine-3-carboxamide] | 0.005 | – | 0.009 |
| COc1nc(C)c(-c2ccc3nc(NC(C)=O)cn3n2)cc1C(=O)NCc1ccccc1OCC1CCCC1 [Example 316, N-{[2-(cyclopentylmethoxy)phenyl]methyl}-5-{2-acetamidoimidazo[1,2-b]pyridazin-6-yl}-2-methoxy-6-methylpyridine-3-carboxamide] | 0.004 | – | 0.008 |
| COc1nc(C)c(-c2ccc3nc(NC(C)=O)cn3n2)cc1C(=O)NCc1ccc(F)cc1OCC1CC1 [Example 317, N-{[2-(cyclopropylmethoxy)-4-fluorophenyl]methyl}-5-{2-acetamidoimidazo[1,2-b]pyridazin-6-yl}-2-methoxy-6-methylpyridine-3-carboxamide] | 0.003 | – | 0.019 |
| COc1nc(C)c(-c2ccc3nc(NC(C)=O)cn3n2)cc1C(=O)NCc1ccccc1OCC1CC1 [Example 318, N-{[2-(cyclopropylmethoxy)phenyl]methyl}-5-{2-acetamidoimidazo[1,2-b]pyridazin-6-yl}-2-methoxy-6-methylpyridine-3-carboxamide] | 0.003 | – | 0.002 |
| COc1nc(C)c(-c2ccc3nc(NC(C)=O)cn3n2)cc1C(=O)NCc1cccc(OC(F)(F)F)c1 [Example 319, 5-{2-acetamidoimidazo[1,2-b]pyridazin-6-yl}-2-methoxy-6-methyl-N-{[3-(trifluoromethoxy)phenyl]methyl}pyridine-3-carboxamide] | 0.015 | – | 0.029 |
| CC(=O)Nc1cn2nc(-c3cc(C(=O)NCc4cc(F)ccc4OC(F)(F)F)cnc3Cl)ccc2n1 [Example 321, 6-chloro-5-{2-acetamidoimidazo[1,2-b]pyridazin-6-yl}-N-{[5-fluoro-2-(trifluoromethoxy)phenyl]methyl}pyridine-3-carboxamide] | 0.044 | – | 0.386 |
| CC(=O)Nc1cn2nc(-c3cc(C(=O)NCc4cc(F)ccc4OC(F)(F)F)cnc3Cl)ccc2n1 [Example 322, 6-chloro-5-{2-acetamidoimidazo[1,2-b]pyridazin-6-yl}-N-{[5-fluoro-2-(trifluoromethoxy)phenyl]methyl}pyridine-3-carboxamide] | 0.008 | 0.051 | – |
| CC(=O)Nc1cn2nc(-c3cc(C(=O)NCc4c(F)cccc4OCC(F)(F)F)c(C)nc3C)ccc2n1 [Example 325, 5-{2-acetamidoimidazo[1,2-b]pyridazin-6-yl}-N-{[2-fluoro-6-(2,2,2-trifluoroethoxy)phenyl]methyl}-2,6-dimethylpyridine-3-carboxamide] | 0.009 | – | 0.017 |
| CC(=O)Nc1cn2nc(-c3cc(C(=O)NCc4cc(OCC5CC5)ccc4F)c(C)nc3C)ccc2n1 [Example 326, N-{[5-(cyclopropylmethoxy)-2-fluorophenyl]methyl}-5-{2-acetamidoimidazo[1,2-b]pyridazin-6-yl}-2,6-dimethylpyridine-3-carboxamide] | 0.006 | – | 0.01 |
| CC(=O)OCC(=O)Nc1cn2nc(-c3cc(C(=O)NCc4cc(OC(F)(F)F)ccc4F)c(C)nc3C)ccc2n1 [Example 327, ({6-[5-({[2-fluoro-5-(trifluoromethoxy)phenyl]methyl}carbamoyl)-2,6-dimethylpyridin-3-yl]imidazo[1,2-b]pyridazin-2-yl}carbamoyl)methyl acetate] | 0.005 | – | 0.025 |
| CCc1ncc(-c2ccc3nc(NC(C)=O)cn3n2)cc1C(=O)N[C@H](C)c1cc(OC(F)(F)F)ccc1F [Example 328, 5-{2-acetamidoimidazo[1,2-b]pyridazin-6-yl}-2-ethyl-N-[(1R)-1-[2-fluoro-5-(trifluoromethoxy)phenyl]ethyl]pyridine-3-carboxamide] | 0.036 | – | 0.198 |
| CCc1ncc(-c2ccc3nc(NC(C)=O)cn3n2)cc1C(=O)NCc1cc(C(F)(F)F)ccc1F [Example 329, 5-{2-acetamidoimidazo[1,2-b]pyridazin-6-yl}-2-ethyl-N-{[2-fluoro-5-(trifluoromethyl)phenyl]methyl}pyridine-3-carboxamide] | 0.053 | – | 0.088 |
| CC(=O)Nc1cn2nc(-c3cnc(C)c(C(=O)N(C)[C@H](C)c4cc(OC(F)(F)F)ccc4F)c3)ccc2n1 [Example 330, 5-{2-acetamidoimidazo[1,2-b]pyridazin-6-yl}-N-[(1R)-1-[2-fluoro-5-(trifluoromethoxy)phenyl]ethyl]-N,2-dimethylpyridine-3-carboxamide] | 0.046 | – | 0.106 |
| Cc1ncc(-c2ccc3nc(NC(=O)CN4CCN(C)CC4)cn3n2)cc1C(=O)N[C@H](C)c1cc(C(F)(F)F)ccc1F [Example 332, N-[(1R)-1-[2-fluoro-5-(trifluoromethyl)-phenyl]ethyl]-2-methyl-5-{2-[2-(4-methylpiperazin-1-yl)acetamido]imidazo[1,2-b]pyridazin-6-yl}pyridine-3-carboxamide] | 0.308 | – | 0.025 |
| Cc1ncc(-c2ccc3nc(NC(=O)CN4CCCC4)cn3n2)cc1C(=O)N[C@H](C)c1cc(C(F)(F)F)ccc1F [Example 333, N-[(1R)-1-[2-fluoro-5-(trifluoromethyl)-phenyl]ethyl]-2-methyl-5-{2-[2-(pynolidin-1-yl)acetamido]imidazo[1,2-b]pyridazin-6-yl}pyridine-3-carboxamide] | 0.091 | – | 0.218 |
| Cc1ncc(-c2ccc3nc(NC(=O)CN4CCC(F)(F)CC4)cn3n2)cc1C(=O)N[C@H](C)c1cc(OC(F)(F)F)ccc1F [Example 334, 5-{2-[2-(4,4-difluoropiperidin-1-yl)acetamido]-imidazo[1,2-b]pyridazin-6-yl}-N-[(1R)-1-[2-fluoro-5-(trifluoromethoxy)-phenyl]ethyl]-2-methylpyridine-3-carboxamide] | 0.015 | – | 0.01 |
